We go through 24 compounds from ChEMBL document CHEMBL5584239, “Discovery of novel quinoline scaffold selective estrogen receptor degraders (SERDs) for treatment of ER positive breast cancer with enhanced antiproliferative bioactivity through immunogenic cell death (ICD) effects” (Eur J Med Chem, 2024).

Molecules are shown by their SMILES. Active and inactive are the calls of the source. The calls are words filed in the database; no cut-off is given here.

Assay [1] concerns Ishikawa. The experiment in a line: Antiproliferative activity against human Ishikawa cells at 20 uM incubated for 3 days by MTT assay relative to control. It counts as functional. Conditions: 72 h, time 3 day. In general terms: Tetrazolium dyes change colour on reduction, which living cells bring about.
The subject of assay [2] is MCF7. The experiment in a line: Antiproliferative activity against human MCF7 cells incubated for 5 days by MTT assay. The assay is classed as functional, cell-based. Conditions: MCF7, 120 h.
Assay [3] relates to MCF7. The experiment in a line: Induction of ROS production in human MCF7 cells incubated for 3 to 24 hrs by immunofluorescence analysis. The assay is classed as functional, cell-based. Conditions: time 3-24 hrs.
The test system of assay [4] is MCF7. Kind of assay: Induction of cell cycle arrest at G0/G1 phase in human MCF7 cells at 10 uM incubated for 24 hrs by PI/RNase staining based flow cytometry (reference value: 53.5 +/- 1.96 %). It counts as functional.
In assay [5] the target is T1, Estrogen receptor (Homo sapiens) (UniProt P03372).
T1 sequence (whole entry): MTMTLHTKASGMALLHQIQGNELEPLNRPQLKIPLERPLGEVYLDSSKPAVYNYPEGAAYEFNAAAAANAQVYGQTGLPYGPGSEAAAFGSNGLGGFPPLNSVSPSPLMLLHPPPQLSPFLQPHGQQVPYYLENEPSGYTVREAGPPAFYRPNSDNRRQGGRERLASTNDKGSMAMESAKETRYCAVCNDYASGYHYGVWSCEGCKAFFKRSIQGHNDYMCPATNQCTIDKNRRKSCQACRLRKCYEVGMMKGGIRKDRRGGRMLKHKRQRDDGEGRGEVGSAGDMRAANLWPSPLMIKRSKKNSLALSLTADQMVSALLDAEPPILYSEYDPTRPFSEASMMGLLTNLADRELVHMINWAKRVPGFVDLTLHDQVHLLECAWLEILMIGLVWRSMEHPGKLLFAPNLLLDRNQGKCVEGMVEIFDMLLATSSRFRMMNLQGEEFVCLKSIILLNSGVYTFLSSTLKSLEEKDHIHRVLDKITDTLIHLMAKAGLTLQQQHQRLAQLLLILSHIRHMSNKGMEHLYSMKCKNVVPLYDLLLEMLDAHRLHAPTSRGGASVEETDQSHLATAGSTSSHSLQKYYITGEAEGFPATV
The experiment in a line: Induction of estrogen receptor degradation in estradiol-stimulated human MCF7 cells assessed as decrease in TFF1 mRNA level incubated for 24 hrs by RT-qPCR analysis. It counts as cell-based. Conditions: dose 1-10 µM. In general terms: Real-time PCR tracks product formation cycle by cycle.

Assay [6] deals with T1, Estrogen receptor (Homo sapiens). Kind of assay: Induction of estrogen receptor degradation in estradiol-stimulated human MCF7 cells assessed as decrease in PGR mRNA level incubated for 24 hrs by RT-qPCR analysis. It counts as cell-based. Conditions: dose 1-10 µM.
The target is the same in assay [7]. Kind of assay: Induction of estrogen receptor degradation in estradiol-stimulated human MCF7 cells assessed as decrease in GREB1 mRNA level incubated for 24 hrs by RT-qPCR analysis. The assay is classed as cell-based. The following applies: dose 1-10 µM.

The inhibition is the relative decrease from the control value, in per cent. What is called IC50 is the point on the concentration scale where inhibition reaches its midpoint. Take `O=C(O)/C=C/c1ccc(Oc2c(C(=O)c3ccccc3)cnc3cc(O)ccc23)cc1`: the inhibition at 20 µM in assay [1] amounted to 11.8%. In addition, in assay [2], the IC50 amounted to 1670 nM.

For `CCc1ccccc1C(=O)c1cnc2cc(O)ccc2c1Oc1c(C)cc(/C=C/C(=O)O)cc1C`, the inhibition at 20 µM in assay [1] was found to be 11.5%.

For `O=C(O)/C=C/c1ccc(Oc2c(C(=O)c3ccc(OC(F)(F)F)cc3)cnc3cc(O)ccc23)cc1`, in assay [1], the inhibition at 20 µM is 20.4%. In assay [2], half-maximal inhibition (IC50) was put at 1360 nM.

With `O=C(O)/C=C/c1ccc(Oc2c(C(=O)c3ccc(F)cc3)cnc3cc(O)ccc23)cc1`, the inhibition at 20 µM in assay [1] was 12.5%. In assay [2], the IC50 was determined as 4870 nM.

On to `Cc1cc(F)cc(C)c1C(=O)c1cnc2cc(O)ccc2c1Oc1ccc(/C=C/C(=O)O)cc1`, for which the inhibition at 20 µM in assay [1] stood at 35.8%. Besides, the IC50 in assay [2] turned out to be 410 nM.

Regarding `O=C(O)/C=C/c1ccc(Oc2c(C(=O)c3ccccc3C(F)(F)F)cnc3cc(O)ccc23)cc1`, in assay [1], the inhibition at 20 µM amounted to 27.5%. In assay [2], inhibition was half-maximal at 370 nM (IC50).

`C[C@]12CC[C@@H]3c4ccc(O)cc4CC[C@H]3[C@@H]1CC[C@@H]2O`: the outcome in assay [3] was inactive.

Take `Cc1ccc(C(=O)c2cnc3cc(O)ccc3c2Oc2ccc(/C=C/C(=O)O)cc2)c(C)c1`: the inhibition at 20 µM in assay [1] was -0.04%. In assay [2], this compound yielded an IC50 of 450 nM.

For `CC(C)c1ccccc1C(=O)c1cnc2cc(O)ccc2c1Oc1ccc(/C=C/C(=O)O)cc1`, the inhibition at 20 µM in assay [1] amounted to 23.8%. Moreover, the IC50 in assay [2] worked out at 580 nM.

With `Cc1cc(C)cc(C(=O)c2cnc3cc(O)ccc3c2Oc2ccc(/C=C/C(=O)O)cc2)c1`, the inhibition at 20 µM in assay [1] worked out at 30.9%. Further, inhibition in assay [2] was half-maximal at 4800 nM (IC50).

With `Cc1cc(F)ccc1C(=O)c1cnc2cc(O)ccc2c1Oc1ccc(/C=C/C(=O)O)cc1`, the inhibition at 20 µM in assay [1] stood at 15.1%. For the same compound, the IC50 in assay [2] amounted to 420 nM.

In the case of `CC/C(=C(\c1ccccc1)c1ccc(OCCN(C)C)cc1)c1ccccc1` [TAMOXIFEN], the Activity in assay [4] is 67.6%. For the same compound, the inhibition at 20 µM in assay [1] was 86.5%. In addition, in assay [3], the result was inactive. Also, in assay [2], the IC50 was determined as 1560 nM.

For `O=C(O)/C=C/c1ccc(Oc2c(C(=O)c3ccc4occc4c3)cnc3cc(O)ccc23)cc1`, the inhibition at 20 µM in assay [1] was found to be 13.3%. Also, the IC50 in assay [2] was found to be 1470 nM.

Consider `COc1ccc(C(=O)c2cnc3cc(O)ccc3c2Oc2ccc(/C=C/C(=O)O)cc2)cc1`, for which the inhibition at 20 µM in assay [1] stood at 61.2%. In assay [2], this compound yielded an IC50 of 3090 nM.

For the compound `CCc1ccccc1C(=O)c1cnc2cc(O)ccc2c1Oc1ccc(/C=C/C(=O)O)cc1F`, in assay [1], the inhibition at 20 µM was 4.11%. This compound also displayed an IC50 in assay [2] of 670 nM.

In the case of `CCc1ccccc1C(=O)c1cnc2cc(O)ccc2c1Oc1ccc(/C=C/C(=O)O)c(C)c1`, in assay [1], the inhibition at 20 µM worked out at 13.4%. For the same compound, the IC50 in assay [2] was 3570 nM.

As for `CCc1ccccc1C(=O)c1cnc2cc(O)ccc2c1Oc1ccc(/C=C/C(=O)O)cc1OC`, the inhibition at 20 µM in assay [1] is 5.03%. The compound further registered an IC50 in assay [2] of 14000 nM.

Regarding `Cc1cccc(C)c1C(=O)c1cnc2cc(O)ccc2c1Oc1ccc(/C=C/C(=O)O)cc1`, the inhibition at 20 µM in assay [1] stood at 23.1%. Besides, the IC50 in assay [2] came out at 930 nM.

Consider `CCc1ccccc1C(=O)c1cnc2cc(O)ccc2c1Oc1ccc(/C=C/C(=O)O)cc1C`, for which the Activity result in assay [5], in assay [6] and in assay [7] was “Dose-Dependent Effect” throughout. In addition, in assay [1], the inhibition at 20 µM was -6.14%. In assay [2], this compound registered an IC50 of 450 nM.

With `O=C(O)/C=C/c1ccc(Oc2c(C(=O)c3ccc(C(F)(F)F)cc3)cnc3cc(O)ccc23)cc1`, the inhibition at 20 µM in assay [1] was -4.35%. The compound also yielded an IC50 in assay [2] of 690 nM.

`O=C(O)/C=C/c1ccc(Oc2c(C(=O)c3cccs3)cnc3cc(O)ccc23)cc1`: in assay [1], the inhibition at 20 µM was determined as 10.4%. Moreover, the IC50 in assay [2] was found to be 7170 nM.

For `Cc1cc(Cl)ccc1C(=O)c1cnc2cc(O)ccc2c1Oc1ccc(/C=C/C(=O)O)cc1`, the inhibition at 20 µM in assay [1] stood at 24.9%. The IC50 in assay [2] was determined as 370 nM.

Regarding `O=C(O)/C=C/c1ccc(Oc2c(C(=O)c3cccc(F)c3)cnc3cc(O)ccc23)cc1`, in assay [1], the inhibition at 20 µM was 26.4%. This compound also returned an IC50 in assay [2] of 2420 nM.

Regarding `CCc1ccccc1C(=O)c1cnc2cc(O)ccc2c1Oc1cc(C)c(/C=C/C(=O)O)c(C)c1`, the inhibition at 20 µM in assay [1] was found to be 17.3%. The compound further gave an IC50 in assay [2] of 590 nM.
